The text below walks through data of article PMC7740640 (Xenobiotica; the fate of foreign compounds in biological …, 2020).

A word on the IC50: it is the concentration that inhibits the measured activity by half. Low values mean higher potency, high ones lower potency.

Read-outs that look alike come from different tables or passages of the source.

Data set [1] concerns human liver microsomes (HLM). Nature of the data set: Inhibition of C152 metabolism, HLM. In kind it is biochemical. Particulars: 30 μM C152 as substrate.
The target in data set [2] is T1, CYP2B6 (Homo sapiens, UniProt P20813).
T1 sequence (P20813 1-491): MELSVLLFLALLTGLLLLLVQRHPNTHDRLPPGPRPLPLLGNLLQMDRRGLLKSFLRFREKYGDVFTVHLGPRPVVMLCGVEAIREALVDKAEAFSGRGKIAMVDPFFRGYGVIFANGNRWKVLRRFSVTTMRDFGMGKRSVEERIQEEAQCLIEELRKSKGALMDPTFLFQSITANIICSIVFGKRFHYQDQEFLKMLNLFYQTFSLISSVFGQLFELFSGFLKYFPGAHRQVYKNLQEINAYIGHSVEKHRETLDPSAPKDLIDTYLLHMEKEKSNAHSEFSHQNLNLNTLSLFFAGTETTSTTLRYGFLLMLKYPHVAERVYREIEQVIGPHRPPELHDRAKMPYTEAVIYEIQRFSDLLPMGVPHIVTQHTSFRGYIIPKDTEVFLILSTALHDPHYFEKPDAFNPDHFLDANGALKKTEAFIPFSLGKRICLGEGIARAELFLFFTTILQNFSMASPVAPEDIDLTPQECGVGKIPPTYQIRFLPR
The data set is described as follows: Inhibition of C152 metabolism, SS.

Data set [3] has as its target CYP3A4 (Homo sapiens, UniProt P08684). The data set is described as follows: Inhibition of C152 metabolism, SS.
The target in data set [4] is CYP2C19 (Homo sapiens, UniProt P33261). Nature of the data set: Inhibition of C152 metabolism, SS.
Sequence of CYP2C19 (P33261 whole entry): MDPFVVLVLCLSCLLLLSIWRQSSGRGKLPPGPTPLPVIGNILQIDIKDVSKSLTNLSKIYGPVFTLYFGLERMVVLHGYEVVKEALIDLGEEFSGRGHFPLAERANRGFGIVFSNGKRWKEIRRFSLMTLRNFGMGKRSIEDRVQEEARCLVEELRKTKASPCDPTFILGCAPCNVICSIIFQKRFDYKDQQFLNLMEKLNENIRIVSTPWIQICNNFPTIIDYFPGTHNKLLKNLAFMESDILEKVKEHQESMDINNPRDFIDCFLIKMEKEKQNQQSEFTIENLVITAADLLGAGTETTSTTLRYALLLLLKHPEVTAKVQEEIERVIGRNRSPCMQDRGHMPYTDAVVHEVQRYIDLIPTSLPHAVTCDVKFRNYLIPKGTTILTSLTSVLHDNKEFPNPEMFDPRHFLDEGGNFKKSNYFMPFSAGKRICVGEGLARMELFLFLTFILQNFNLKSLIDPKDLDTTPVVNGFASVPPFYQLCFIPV
Data set [5] deals with T2, CYP1A2 (Homo sapiens, UniProt P05177).
T2 sequence (P05177 2-516 limits assumed): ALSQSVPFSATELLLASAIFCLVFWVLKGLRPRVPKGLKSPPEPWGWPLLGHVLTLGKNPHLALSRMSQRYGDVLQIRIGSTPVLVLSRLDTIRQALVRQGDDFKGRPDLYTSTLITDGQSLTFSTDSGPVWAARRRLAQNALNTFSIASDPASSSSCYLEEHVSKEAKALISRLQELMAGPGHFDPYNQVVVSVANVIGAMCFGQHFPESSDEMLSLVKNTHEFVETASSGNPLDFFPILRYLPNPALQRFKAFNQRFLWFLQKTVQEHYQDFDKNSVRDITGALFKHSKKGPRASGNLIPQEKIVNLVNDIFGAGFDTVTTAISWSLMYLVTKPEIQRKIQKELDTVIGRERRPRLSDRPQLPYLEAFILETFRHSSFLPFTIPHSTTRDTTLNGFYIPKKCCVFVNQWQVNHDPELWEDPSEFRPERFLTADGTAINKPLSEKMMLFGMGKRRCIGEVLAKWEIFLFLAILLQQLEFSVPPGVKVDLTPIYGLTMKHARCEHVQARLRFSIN
Nature of the data set: C152 metabolism. In kind it is in vitro ADME. Particulars: SS(1A2); initial substrate C152 28 μM; scanning fluorimetry.

Where [6] appears, read: SS(2B6), 30 μM C152 as substrate.
[7] abbreviates: SS(3A4), 30 μM C152 as substrate.

Sequence of CYP3A4 (P08684 2-503 limits assumed): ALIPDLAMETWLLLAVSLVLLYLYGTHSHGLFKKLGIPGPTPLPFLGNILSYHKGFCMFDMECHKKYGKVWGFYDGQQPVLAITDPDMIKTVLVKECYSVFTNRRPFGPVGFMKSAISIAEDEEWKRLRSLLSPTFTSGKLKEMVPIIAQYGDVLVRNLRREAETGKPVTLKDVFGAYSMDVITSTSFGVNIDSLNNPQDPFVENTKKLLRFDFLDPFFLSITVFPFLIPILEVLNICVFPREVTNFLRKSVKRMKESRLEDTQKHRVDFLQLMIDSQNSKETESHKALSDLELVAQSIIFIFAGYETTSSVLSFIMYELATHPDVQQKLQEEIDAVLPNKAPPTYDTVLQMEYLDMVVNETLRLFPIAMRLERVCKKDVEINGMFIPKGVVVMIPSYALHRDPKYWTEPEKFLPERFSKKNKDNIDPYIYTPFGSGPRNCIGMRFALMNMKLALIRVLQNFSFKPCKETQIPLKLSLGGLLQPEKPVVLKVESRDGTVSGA

For the molecule `CC[C@@]1(c2ccccc2)NC(=O)N(Cc2ccccc2)C1=O` [BNVL, (S)-(+)-N-3-benzylnirvanol], the figures for the IC50 in data set [1], in data set [2] (setting [6]) and in data set [3] (setting [7]) were 0.51 ± 0.03 µM, 8.5 ± 2.3 µM and 27 ± 3 µM, respectively. Also, the “Inhibition (maximal amplitude)” value in data set [2] (setting [6]) is recorded as 81±7%; in data set [3] (setting [7]) it was 59±10%.

As to `Clc1ccc(Cc2ccncc2)cc1` [CBP, 4-(4-Chlorobenzyl)pyridine], the IC50 in data set [1] was 225 ± 30 µM; in data set [2] it was 0.038 ± 0.016 µM; in data set [3], 225 ± 73 µM; in data set [4], 215 ± 118 µM. Besides, in data set [1], the “Inhibition (maximal amplitude)” value was found to be 88±12%.

Take `Clc1ccccc1C(c1ccccc1)(c1ccccc1)n1ccnc1` [CTZ, clotrimazole]: the IC50 in data set [4] amounted to 0.2 ± 0.11 µM.

Take `CNc1ccc2c(C(F)(F)F)cc(=O)oc2c1` [DC152, 7-methylamino-4-trifluoromethyl coumarin]: in data set [5], the “maximal level of formation of DC152” value is ~ 4 μM.

On to `CC(=O)N1CCN(c2ccc(OCC3COC(Cn4ccnc4)(c4ccc(Cl)cc4Cl)O3)cc2)CC1` (stereo not drawn) [KCZ, ketoconazole], for which the IC50 in data set [1] amounted to 1.9 ± 0.2 µM; in data set [2], 9.5 ± 2.8 µM. For the same molecule, in data set [1], the “Inhibition (maximal amplitude)” value was 89±7%.
